# Results taken from patent US11666558B2, “Methods of treating intraocular pressure with activators of Tie-2” (EyePoint Pharmaceuticals, Inc., priority 2015, dated 2023).
# pIC50: −log10 of the molar value.
# Experiments:
# [1] = molecular target: HPTP-β (Homo sapiens (Human), UniProt P23467); experiment: HPTP-β inhibitory activity (IC50); assay type: biochemical
# [2] = system: intraocular pressure; experiment: Intraocular pressure, Compound 1 with sham or ranibizumab, Months 1-3 (FIG. 2, TABLE 1); assay type: in vivo
# Description: The difference in IOP was determined relative to a pre-treatment baseline (Base) at months 1, 2, and 3 (M1-M3). Intraocular pressure was determined in the study eye in millimeters of mercury (mmHg). […] The difference in IOP was determined relative to a pre-treatment Baseline at Months 1, 2 and 3. Intraocularpressure was determined in the study eye/fellow eye in mmHg.
# Sequence of HPTP-β (P23467 23-1997): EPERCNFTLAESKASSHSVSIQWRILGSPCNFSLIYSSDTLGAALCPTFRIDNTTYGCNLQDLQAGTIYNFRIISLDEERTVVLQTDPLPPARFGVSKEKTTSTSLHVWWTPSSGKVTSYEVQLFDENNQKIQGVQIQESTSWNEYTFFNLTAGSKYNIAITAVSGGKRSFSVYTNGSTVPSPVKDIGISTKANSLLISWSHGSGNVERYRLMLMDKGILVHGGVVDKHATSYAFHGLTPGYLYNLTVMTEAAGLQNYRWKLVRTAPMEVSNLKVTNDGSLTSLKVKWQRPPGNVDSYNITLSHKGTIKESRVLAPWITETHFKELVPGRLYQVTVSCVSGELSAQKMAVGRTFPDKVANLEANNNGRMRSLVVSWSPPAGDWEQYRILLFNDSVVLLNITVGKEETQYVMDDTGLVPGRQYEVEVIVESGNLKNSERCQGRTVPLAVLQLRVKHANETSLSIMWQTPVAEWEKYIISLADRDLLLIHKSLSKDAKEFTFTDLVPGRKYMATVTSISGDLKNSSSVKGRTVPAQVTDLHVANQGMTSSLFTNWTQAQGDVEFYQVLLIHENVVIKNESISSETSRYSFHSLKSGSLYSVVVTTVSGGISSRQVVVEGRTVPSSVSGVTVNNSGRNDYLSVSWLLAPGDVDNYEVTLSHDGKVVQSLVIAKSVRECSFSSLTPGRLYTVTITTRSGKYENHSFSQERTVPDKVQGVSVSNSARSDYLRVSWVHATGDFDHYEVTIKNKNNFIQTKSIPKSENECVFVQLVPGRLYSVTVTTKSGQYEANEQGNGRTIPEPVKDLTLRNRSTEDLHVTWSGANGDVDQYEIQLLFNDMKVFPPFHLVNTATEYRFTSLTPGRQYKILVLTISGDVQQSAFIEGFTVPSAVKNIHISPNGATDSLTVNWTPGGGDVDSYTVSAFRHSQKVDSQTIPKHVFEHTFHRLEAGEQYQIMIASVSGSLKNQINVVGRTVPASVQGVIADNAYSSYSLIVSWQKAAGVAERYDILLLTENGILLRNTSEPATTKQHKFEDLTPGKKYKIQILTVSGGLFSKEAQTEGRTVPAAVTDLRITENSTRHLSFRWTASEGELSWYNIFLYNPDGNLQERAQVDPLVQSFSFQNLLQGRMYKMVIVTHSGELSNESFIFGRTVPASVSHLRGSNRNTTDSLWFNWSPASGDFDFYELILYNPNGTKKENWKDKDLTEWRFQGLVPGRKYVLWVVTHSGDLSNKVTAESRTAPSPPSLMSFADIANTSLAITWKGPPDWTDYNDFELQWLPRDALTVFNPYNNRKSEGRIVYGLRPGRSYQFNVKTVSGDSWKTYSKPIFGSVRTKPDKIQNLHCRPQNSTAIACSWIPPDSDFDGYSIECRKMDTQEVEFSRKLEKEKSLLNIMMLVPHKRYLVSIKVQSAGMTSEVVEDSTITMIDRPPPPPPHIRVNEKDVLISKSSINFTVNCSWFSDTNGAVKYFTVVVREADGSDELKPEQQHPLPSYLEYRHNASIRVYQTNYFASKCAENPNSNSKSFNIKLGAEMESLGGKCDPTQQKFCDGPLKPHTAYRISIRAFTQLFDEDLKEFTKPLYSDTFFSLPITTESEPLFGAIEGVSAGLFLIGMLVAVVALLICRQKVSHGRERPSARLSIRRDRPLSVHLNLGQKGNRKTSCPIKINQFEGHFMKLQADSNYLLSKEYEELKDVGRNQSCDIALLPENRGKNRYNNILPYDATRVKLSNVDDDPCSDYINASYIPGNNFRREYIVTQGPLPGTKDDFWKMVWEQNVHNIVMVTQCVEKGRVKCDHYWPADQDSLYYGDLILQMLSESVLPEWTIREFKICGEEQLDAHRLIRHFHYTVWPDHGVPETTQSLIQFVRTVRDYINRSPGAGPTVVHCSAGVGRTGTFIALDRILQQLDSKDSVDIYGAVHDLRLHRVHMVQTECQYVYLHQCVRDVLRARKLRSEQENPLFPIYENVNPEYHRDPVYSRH
compound,measurement,setting,value
COC(=O)N[C@@H](Cc1ccccc1)C(=O)N[C@@H](Cc1ccc(NS(=O)(=O)O)cc1)c1nc(-c2ccccc2)cs1 [AA21],pIC50,[1],> 11.70
CC(C)(C)OC(=O)N[C@@H](Cc1ccc(NS(=O)(=O)O)cc1)c1csc(OC(=O)C(C)(C)C)n1 [AA71],pIC50,[1],6.26
CCc1csc([C@H](Cc2ccc(NS(=O)(=O)O)cc2)NC(=O)[C@H](CNC(=O)OC(C)(C)C)Cc2ccccc2)n1 [AA3],pIC50,[1],7.51
ranibizumab [placebo + RBZ],"IOP, fellow eye",[2]; Baseline (pre-treatment),15.8 mmHg
same,"IOP, study eye",[2]; Baseline (pre-treatment),15.2 mmHg
same,"IOP, fellow eye",[2]; Month 1,15.5 mmHg
same,"IOP, study eye",[2]; Month 1,15.0 mmHg
same,"IOP, fellow eye",[2]; Month 2,15.5 mmHg
same,"IOP, study eye",[2]; Month 2,15.0 mmHg
same,"IOP, fellow eye",[2]; Month 3,15.7 mmHg
same,"IOP, study eye",[2]; Month 3,15.3 mmHg
CCc1csc([C@H](Cc2ccc(NS(=O)(=O)O)cc2)NC(=O)[C@H](CC(C)C)NC(=O)OC(C)(C)C)n1 [AA42],pIC50,[1],8.22
